# Measurements reported in PubChem BioAssay (NCI).
#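 GI50 is the concentration that inhibits growth by half. The concentration for full growth arrest is given as TGI.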
# Key:
# Experiment in all cases: DTP human tumour cell line panel, 384-well format
# [1] = test system: NCI-H460 NSCLC
# [2] = test system: T-47D breast
# [3] = test system: HS 578T breast
# [4] = test system: SW-620 colon
# [5] = test system: KM12 colon
# [6] = test system: HL-60(TB) leukemia
# [7] = test system: TK-10 renal
# [8] = test system: RPMI-8226 leukemia
# [9] = test system: SF-268 CNS
# [10] = test system: NCI-H322M lung
# [11] = test system: OVCAR-8 ovarian
# [12] = test system: UACC-257 melanoma
# [13] = test system: COLO 205 colon
# [14] = test system: BT-549 breast
# [15] = test system: HOP-62 NSCLC
# [16] = test system: RXF 393 renal
# [17] = test system: OVCAR-3 ovarian
# [18] = test system: MDA-MB-468 breast
# [19] = test system: MOLT-4 leukemia
# [20] = test system: SNB-75 CNS
# [21] = test system: ACHN renal
# [22] = test system: SNB-19 CNS
# [23] = test system: A549 NSCLC
# [24] = test system: EKVX NSCLC
# [25] = test system: SK-MEL-5 melanoma
# [26] = test system: UACC-62 melanoma
# [27] = test system: CAKI-1 renal
# [28] = test system: SF-295 CNS
# [29] = test system: MDA-MB-231 breast
# [30] = test system: 786-0 renal
# [31] = test system: MALME-3M melanoma
# [32] = test system: M14 melanoma
# [33] = test system: NCI-H226 lung
# [34] = test system: SK-MEL-2 melanoma
# [35] = test system: OVCAR-4 ovarian
# [36] = test system: DU-145 prostate
# [37] = test system: PC-3 prostate
# [38] = test system: SK-OV-3 ovarian
# [39] = test system: U251 glioblastoma
# [40] = test system: NCI/ADR-RES ovarian
# [41] = test system: SR leukemia
# [42] = test system: MCF7 breast
# [43] = test system: HCC-2998 colon
# [44] = test system: MDA-MB-435 melanoma
# [45] = test system: HT29 colon
# [46] = test system: SK-MEL-28 melanoma
# [47] = test system: NCI-H522 lung
# [48] = test system: NCI-H23 lung
# [49] = test system: OVCAR-5 ovarian
# [50] = test system: SF-539 CNS
# [51] = test system: HCT-15 colon
# [52] = test system: HOP-92 NSCLC
# [53] = test system: A498 renal
# [54] = test system: IGROV1 ovarian
# [55] = test system: SN12C renal
# [56] = test system: CCRF-CEM leukemia
compound,measurement,setting,value
Cc1[nH]c(/C=C2\C(=O)Nc3ccccc32)c(C)c1CCC(=O)O,GI50,[1],17.6 µM
same,TGI,[1],34.2 µM
same,GI50,[2],53.7 µM
same,TGI,[2],> 100 µM
same,GI50,[3],22.1 µM
same,TGI,[3],78.7 µM
same,GI50,[4],19.6 µM
same,TGI,[4],41.4 µM
same,GI50,[5],4.33 µM
same,TGI,[5],52.9 µM
same,GI50,[6],23.9 µM
same,TGI,[6],39.2 µM
same,GI50,[7],23.2 µM
same,TGI,[7],59.3 µM
same,GI50,[8],16.2 µM
same,TGI,[8],30.5 µM
same,GI50,[9],24.5 µM
same,TGI,[9],73.9 µM
same,GI50,[10],38.4 µM
same,TGI,[10],> 100 µM
same,GI50,[11],32 µM
same,TGI,[11],> 100 µM
same,GI50,[12],17.7 µM
same,TGI,[12],47.8 µM
same,GI50,[13],22.8 µM
same,TGI,[13],38.7 µM
same,GI50,[14],18 µM
same,TGI,[14],42.3 µM
same,GI50,[15],42.4 µM
same,TGI,[15],> 100 µM
same,GI50,[16],56 µM
same,TGI,[16],> 100 µM
same,GI50,[17],27.4 µM
same,TGI,[17],89 µM
same,GI50,[18],16.3 µM
same,TGI,[18],32.6 µM
same,GI50,[19],16.3 µM
same,TGI,[19],30.3 µM
same,GI50,[20],11.7 µM
same,TGI,[20],> 100 µM
same,GI50,[21],24.6 µM
same,TGI,[21],68.4 µM
same,GI50,[22],61.7 µM
same,TGI,[22],> 100 µM
same,GI50,[23],29.2 µM
same,TGI,[23],84.7 µM
same,GI50,[24],17.6 µM
same,TGI,[24],52.7 µM
same,GI50,[25],17.2 µM
same,TGI,[25],36 µM
same,GI50,[26],25.9 µM
same,TGI,[26],70.3 µM
same,GI50,[27],15.1 µM
same,TGI,[27],40.3 µM
same,GI50,[28],> 100 µM
same,TGI,[28],> 100 µM
same,GI50,[29],16.5 µM
same,TGI,[29],53 µM
same,GI50,[30],52 µM
same,TGI,[30],> 100 µM
same,GI50,[31],5.47 µM
same,TGI,[31],23.1 µM
same,GI50,[32],15.1 µM
same,TGI,[32],33.9 µM
same,GI50,[33],15.3 µM
same,TGI,[33],34.4 µM
same,GI50,[34],24 µM
same,TGI,[34],41.7 µM
same,GI50,[35],22.6 µM
same,TGI,[35],> 100 µM
same,GI50,[36],35.4 µM
same,TGI,[36],> 100 µM
same,GI50,[37],24.6 µM
same,TGI,[37],81.9 µM
same,GI50,[38],14.3 µM
same,TGI,[38],38.7 µM
same,GI50,[39],35 µM
same,TGI,[39],> 100 µM
same,GI50,[40],31.9 µM
same,TGI,[40],> 100 µM
same,GI50,[41],19.1 µM
same,TGI,[41],33.3 µM
same,GI50,[42],39.9 µM
same,TGI,[42],> 100 µM
same,GI50,[43],24.1 µM
same,TGI,[43],75.3 µM
same,GI50,[44],21.3 µM
same,TGI,[44],51.4 µM
same,GI50,[45],26 µM
same,TGI,[45],67.6 µM
same,GI50,[46],23.1 µM
same,TGI,[46],52.6 µM
same,GI50,[47],21.2 µM
same,TGI,[47],62.1 µM
same,GI50,[48],16.6 µM
same,TGI,[48],40.1 µM
same,GI50,[49],20.2 µM
same,TGI,[49],55.3 µM
same,GI50,[50],13.1 µM
same,TGI,[50],45.4 µM
same,GI50,[51],25.3 µM
same,TGI,[51],59.6 µM
same,GI50,[52],19.8 µM
same,TGI,[52],43.3 µM
same,GI50,[53],29 µM
same,TGI,[53],> 100 µM
same,GI50,[54],25.6 µM
same,TGI,[54],86.5 µM
same,GI50,[55],27.7 µM
same,TGI,[55],89.3 µM
same,GI50,[56],18.1 µM
same,TGI,[56],34.4 µM
